Here are results for nine compounds from patent publication US12522594B2, “2-heteroaryl-3-oxo-2,3-dihydropyridazine-4-carboxamides for the treatment of cancer” (Deutsches Krebsforschungszentrum, priority 2017, dated 2026).

Holding throughout (assay type): cell-based
Assay [1] addresses T1, AHR (Homo sapiens, UniProt P35869).
T1 sequence (P35869 11-848): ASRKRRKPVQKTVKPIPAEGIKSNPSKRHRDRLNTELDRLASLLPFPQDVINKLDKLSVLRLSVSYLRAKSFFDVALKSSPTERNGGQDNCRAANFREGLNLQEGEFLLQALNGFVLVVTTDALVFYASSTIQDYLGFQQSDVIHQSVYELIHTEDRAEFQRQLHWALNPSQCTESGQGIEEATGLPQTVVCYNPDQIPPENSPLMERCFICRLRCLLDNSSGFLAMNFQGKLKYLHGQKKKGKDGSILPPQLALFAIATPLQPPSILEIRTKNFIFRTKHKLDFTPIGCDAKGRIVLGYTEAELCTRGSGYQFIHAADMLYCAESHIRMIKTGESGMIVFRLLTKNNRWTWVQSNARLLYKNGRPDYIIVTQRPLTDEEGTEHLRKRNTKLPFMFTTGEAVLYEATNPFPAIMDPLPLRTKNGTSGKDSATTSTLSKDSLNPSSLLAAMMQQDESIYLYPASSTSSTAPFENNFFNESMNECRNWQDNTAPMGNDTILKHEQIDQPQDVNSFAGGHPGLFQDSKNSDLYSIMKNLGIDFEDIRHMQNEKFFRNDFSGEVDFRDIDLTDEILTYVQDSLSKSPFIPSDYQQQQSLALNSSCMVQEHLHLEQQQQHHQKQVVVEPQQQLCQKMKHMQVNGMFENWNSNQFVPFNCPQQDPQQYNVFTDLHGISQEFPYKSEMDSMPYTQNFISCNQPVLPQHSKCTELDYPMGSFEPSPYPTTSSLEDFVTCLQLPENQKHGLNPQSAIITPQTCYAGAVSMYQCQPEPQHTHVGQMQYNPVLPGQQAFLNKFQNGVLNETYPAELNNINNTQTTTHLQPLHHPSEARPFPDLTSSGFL
The assay is described as follows: In vitro assay 1: antagonism in human cell line (transactivation assay, U87 cells prestimulated with kynurenic acid, DRE firefly luciferase reporter). More on the design: host or cells: U87 glioblastoma cells, stably transfected with DRE firefly luciferase and renilla reporter constructs. The following applies: 150 uM kynurenic acid, 20 hours, read-out: Assay 1: AHR-luc Hum Antagonism IC50. A digest of the protocol: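 Antagonism measured after kynurenic acid prestimulation in U87 cells that express AHR endogenously and stably harbor a firefly luciferase gene under DRE control plus a constitutive renilla construct. Positive and negative controls served for normalization.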

The target in assay [2] is T1, AHR. The assay is described as follows: In vitro assay 2: agonism in human cell line (transactivation assay, U87 cells, DRE firefly luciferase reporter). On the set-up: host or cells: U87 glioblastoma cells, stably transfected with DRE firefly luciferase and renilla reporter constructs. To be noted: no kynurenic acid, 20 hours, read-out: Assay 2: AHR-luc Hum Agonism IC50. A digest of the protocol: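 Agonist readout: DRE firefly luciferase, with constitutive renilla reporter, in stably transfected U87 cells expressing AHR endogenously. Normalization used positive control (300 uM kynurenic acid) and negative control.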

For assay [3], the target named is T1, AHR. The assay is described as follows: In vitro assay 3: AHR-regulated CYP1A1 expression in human cell line (U937, qPCR, KA stimulation). To be noted: U937 cells, 200 uM KA, 6 hours, CYP1A1 expression by qPCR; read-out: Assay 3: Hum CYP1A1 Antagonism IC50. A digest of the protocol: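 U937 human monocytic cells were stimulated with 200 uM KA for 6 h, with or without compound at eight concentrations from 1 nM to 3 uM, in duplicate. CYP1A1 mRNA was quantified by Taqman qPCR as fold expression normalised to HPRT. Unstimulated cells served as negative control.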

Each structure is given as a SMILES string.

For `O=C(NC[C@H](O)C(F)(F)F)c1cc(-c2ccc(OC(F)F)cc2)nn(-c2cccnc2)c1=O` [Example 314, 6-[4-(Difluoromethoxy)phenyl]-3-oxo-2-(pyridin-3-yl)-N-[(2S)-3,3,3-trifluoro-2-hydroxypropyl]-2,3-dihydropyridazine-4-carboxamide], the IC50 in assay [1] was 5.8 nM; in assay [2], > 20000 nM; in assay [3] it was 10.9 nM.
The corresponding values for `O=C(NC[C@H](O)C(F)(F)F)c1cc(-c2ccc(C(F)F)cc2)nn(-c2cccnc2)c1=O` [Example 313, 6-[4-(Difluoromethyl)phenyl]-3-oxo-2-(pyridin-3-yl)-N-[(2S)-3,3,3-trifluoro-2-hydroxypropyl]-2,3-dihydropyridazine-4-carboxamide] are 2.63 nM, > 20000 nM and 3.81 nM.
The corresponding values for `O=C(NC[C@H](O)C(F)F)c1cc(-c2ccc(OC(F)(F)F)cc2)nn(-c2cccnc2)c1=O` [Example 295, N-[(2S)-3,3-Difluoro-2-hydroxypropyl]-3-oxo-2-(pyridin-3-yl)-6-[4-(trifluoromethoxy)phenyl]-2,3-dihydropyridazine-4-carboxamide] are 31.9 nM, > 20000 nM and 89.9 nM.
Taken in the same sequence, the figures for `CC(C)(O)CNC(=O)c1cc(-c2ccc(C(F)(F)F)nc2)nn(-c2cnsc2)c1=O` [Example 240, N-(2-Hydroxy-2-methylpropyl)-3-oxo-2-(1,2-thiazol-4-yl)-6-[6-(trifluoromethyl)pyridin-3-yl]-2,3-dihydropyridazine-4-carboxamide] were 10.6 nM, > 20000 nM and 22.7 nM.
For the compound `O=C(N[C@H]1COC[C@H]1O)c1cc(-c2ccc(OC(F)(F)F)cc2)nn(-c2cccnc2)c1=O` (single isomer, unassigned; enantiomer 2) [Example 159, N-[(cis)-4-Hydroxytetrahydrofuran-3-yl]-3-oxo-2-(pyridin-3-yl)-6-[4-(trifluoromethoxy)phenyl]-2,3-dihydropyridazine-4-carboxamide, Enantiomer 2], the IC50 was 57 nM in assay [1], > 20000 nM in assay [2] and 97.9 nM in assay [3].
For `C[C@@H](CO)NC(=O)c1cc(-c2ccc(Cl)cc2)nn(-c2cncc(F)c2)c1=O` [Example 80, 6-(4-Chlorophenyl)-2-(5-fluoropyridin-3-yl)-N-[(2S)-1-hydroxypropan-2-yl]-3-oxo-2,3-dihydropyridazine-4-carboxamide], the half-inhibitory concentration (IC50) in assay [1] is 27.1 nM; in assay [2], > 20000 nM; in assay [3], 32.6 nM.
The corresponding values for `CC(C)(O)CNC(=O)c1cc(-c2ccc(Cl)cc2)nn(-c2csc(Cl)c2)c1=O` [Example 250, 6-(4-Chlorophenyl)-2-(5-chloro-3-thienyl)-N-(2-hydroxy-2-methylpropyl)-3-oxo-2,3-dihydropyridazine-4-carboxamide] are 16.9 nM, > 20000 nM and 10.5 nM.
Taken in the same sequence, the figures for `CC(C)(O)CNC(=O)c1cc(-c2ccc(C(F)(F)F)cc2)nn(-c2cccnc2)c1=O` [Example 115, N-(2-Hydroxy-2-methylpropyl)-3-oxo-2-(pyridin-3-yl)-6-[4-(trifluoromethyl)phenyl]-2,3-dihydropyridazine-4-carboxamide] were 2.63 nM, > 20000 nM and 10.9 nM.
The corresponding values for `C[C@H](CO)NC(=O)c1cc(-c2ccc(C(F)(F)F)cc2)nn(-c2cccnc2)c1=O` [Example 118, N-[(2R)-1-Hydroxypropan-2-yl]-3-oxo-2-(pyridin-3-yl)-6-[4-(trifluoromethyl)phenyl]-2,3-dihydropyridazine-4-carboxamide] are 45.1 nM, > 20000 nM and 57 nM.
